Results published in patent US7407934B2, “Methods for regulating postprandial blood glucose” (Amylin Pharmaceuticals, Inc., priority 1993, dated 2008).
Values belong to the compound of their own block, whether it stands above or below them. Positions of bridges follow the written chain, without caps; N, C: chain ends. Residues, ends and D or L forms follow the SMILES beside them.

Assays:
[1] = Oral glucose tolerance test in dogs during amylin infusion (Example 1); format: in vivo, dog
Protocol: Mongrel dogs (9 males, 12-17 kg wt. range) were used for this study. All animals were fasted overnight prior to each study. Each animal served as its own control for all protocols. Animals were equilibrated for 30-60 minutes prior to the start of each protocol.
25% glucose (1 gm/kg) was administered by mouth at t=0 minutes. […] Samples for insulin, glucose and lactate were obtained at 15 minutes intervals from t=−45 to t=180 minutes.

[2] = Plasma amylin concentration after subcutaneous rat amylin (immuno-enzymometric assay); format: in vivo; settings: sc, 1 μg, Peak plasma amylin concentration, 1 μg s.c., 20 min
Protocol: The plasma from 250 μL samples collected at 10 min intervals was separated and frozen at −20° C. for analysis by a 2-site immuno-enzymometric assay developed in-house.
To perform the immunoassay, black microtiter plates (Dynatech, Chantilly, Va.) were coated with the antibody F024-4.4 [Phelps JL, Blase E, Koda JE, unpublished] by overnight incubation at 4° C. with 20 μg antibody per mL in 50 mM carbonate at pH 9.6. Plates were washed with 0.05 M Tris/0.15 M sodium chloride/0.02% sodium azide/0.1% Tween 20 (TBS/Tween), and blocked with 1.0% nonfat dry milk powder in the same carbonate buffer for one hour at room temperature. Samples were thawed on ice, and diluted in 4% BSA/200 mg/dl bovine cholesterol supertrate (Miles Pentex reagents, Miles Laboratories, Kankakee, Ill.) if necessary. Samples or standards were added to the coated and blocked plates and incubated for one hours at room temperature. After washing, the F025-27 detection antibody conjugated to alkaline phosphatase was added. […] Bound enzyme was detected by incubation of the plates with the fluorescent substrate 4-methylumbelliferyl phosphate at 50 ug/ml in 1M diethanolamine/0.5 mM MgCl, pH 9.8 for 40 minutes at room temperature. The fluorescent signal was measured with a Dynatech Microfluor plate reader, and data analyzed on Multicalc software (Wallac, Gaithersburg, Md.). […]

gastric emptying = assay: Gastric emptying of Phenol Red methylcellulose gel after gavage (Example 5); format: in vivo, rat; settings: for ED50 for suppression of gastric emptying: diabetic BB rats fasted 6 hours; for ED50 for change in gastric emptying: normal HSD rats fasted 20 hours
Protocol: When BB rats were confirmed as being diabetic by glycosuria on at least 2 days, they were treated with daily s.c. injections of ultralente recombinant human insulin (Humulin-U, Eli Lilly, Indianapolis). Insulin therapy was aimed at maintaining glucose but minimizing ketones in the urine, in order to avoid hypoglycemic deaths. In fact, glycosuria was present in 88% of measurements and ketonuria in 52%. The average duration of diabetes was 53±5 days, and daily insulin requirements were 4.7±0.3 units. All animals were housed at […] in a 12:12 hour light:dark cycle (experiments being performed during the light cycle) and were fed and watered ad libitum (Diet LM-485, Teklad, Madison, Wis.).
The determination of gastric emptying by the method described below has usually been performed after a fast of ˜20 hours to ensure that the stomach contained no chyme that would interfere with spectrophotomertric absorbance measurements. However, diabetic rats treated with Ultralente insulin could not be fasted for 20 hours. […] Such animals were therefore fasted for only 6 hours before measurement of gastric emptying. Non-diabetic rates were deprived of food for either 6 or 20 hours prior to experimentation. We have note that even non-diabetic BB rats have elevated glycated hemoglobin concentrations, possibly indicating subclinical insulitis. Both non-diabetic Harlan Sprague Dawley rats and non-diabetic BB rats animals were therefor use in comparisons with diabetic rats. Thus there were 5 treatment groups:
Twenty minutes after gavage, rats were anesthetized using 5% halothane, the stomach exposed and clamped at the pyloric and lower esophageal spincters using artery forceps, removed and opened into an alkaline solution which was made up to a fixed volume. Stomach content was derived from the intensity of the phenol red in the alkaline solution, measured by absorbance at a wavelength of 560 nm. In most experiments, the stomach was clear. In other experiments, particulate gastric contents were centrifuged to clear the solution for absorbance measurements. Where the diluted gastric contents remained turbid, the spectroscopic absorbance due to Phenol Red was derived as the difference between that present in alkaline vs acidified diluent. In separate experiments on 7 rats, the stomach and small intestine were both excised and opened into an alkaline solution. The quantity of phenol red that could be recovered from the upper gastrointestinal tract within 20 minutes of gavage was 89±4%. To account for a maximal dye recovery of less than 100%, stomach contents remaining after 20 min were expressed as a fraction of the gastric contents recovered from control rats sacrificed immediately after gavage in the same experiment.
Pairwise comparisons were performed using one-way analysis of variance and the Student-Newman-Keuls multiple comparisons test (Instat v2.0, GraphPad Software, San Diego) using P<0.05 as the level of significance.

[3] = rats, rabbits, humans with Paget's disease; cited from earlier work
plasma renin activity = settings: intact rats, given subcutaneously
Text: This is important because lowered blood pressure is a strong stimulus to renin release.

[4] = tested on: glucose absorption from the small intestine; assay: Glucose absorption from duodenum / perfused small bowel in anesthetized rats; format: in vivo, rat
Text: Because the studies involved anesthetized rather than conscious rats, they are not considered in analyzing gastric motility, e.g., rate of emptying of stomach contents into the duodenum. However, the studies indicate that absorption of glucose from the duodenum into the blood was not delayed by amylin. […] In anesthetized rats, a segment of small bowel, still connected to the animal via its blood supply, was exteriorized and cannulae inserted so that the small bowel could be perfused with glucosed solutions of controlled composition. The animals were cannulated also via an artery (for blood sampling) and via a vein (for infusion or amylin, insulin and glucose). The lumen was perfused with a tritium-labelled glucose solution. The passage of glucose from the lumen of the gut into the rat was measured by the appearance of the tritium label in the plasma. The supposition that such appearance of tritium in the plasma was indeed measuring glucose uptake from the gut was tested by administration of the glucose transport blocker, phloridzin. […] To ensure that the glucose gradient between the gut lumen and plasma remained constant, during amylin infusions, plasma glucose was “clamped” by an infusion of glucose that was varied in response to changes in plasma glucose.

[5] = cited from earlier work
[6] = tested on: insulin-stimulated glycogen synthesis in soleus muscle; assay: Soleus muscle assay (inhibition of insulin-stimulated glycogen synthesis); format: cell-based, rat
Protocol: Concentrations of peptide dissolved in carrier-free buffers are determined by quantitative amino acid analysis, as described therein. The ability of compounds to act as agonists in this assay is determined by measuring EC50 values. […] Similar results were obtained with other agonist compounds listed above.

SMILES: CC(C)C[C@H](NC(=O)[C@H](CC(N)=O)NC(=O)[C@H](CC(N)=O)NC(=O)[C@H](CO)NC(=O)[C@H](CO)NC(=O)[C@H](CCCNC(=N)N)NC(=O)[C@@H](NC(=O)[C@H](CC(C)C)NC(=O)[C@H](Cc1ccccc1)NC(=O)[C@H](CC(N)=O)NC(=O)[C@H](C)NC(=O)[C@H](CC(C)C)NC(=O)[C@H](CCCNC(=N)N)NC(=O)[C@H](CCC(N)=O)NC(=O)[C@@H](NC(=O)[C@H](C)NC(=O)[C@@H]1CSSC[C@H](NC(=O)[C@@H](N)CCCCN)C(=O)N[C@@H](CC(N)=O)C(=O)N[C@@H]([C@@H](C)O)C(=O)N[C@@H](C)C(=O)N[C@@H]([C@@H](C)O)C(=O)N1)[C@@H](C)O)C(C)C)C(=O)NCC(=O)N1CCC[C@H]1C(=O)N[C@H](C(=O)N[C@@H](CC(C)C)C(=O)N1CCC[C@H]1C(=O)N1CCC[C@H]1C(=O)N[C@H](C(=O)N[C@@H](CC(N)=O)C(=O)N[C@H](C(=O)NCC(=O)N[C@@H](CO)C(=O)N[C@@H](CC(N)=O)C(=O)N[C@H](C(=O)N[C@@H](Cc1ccc(O)cc1)C(N)=O)[C@@H](C)O)C(C)C)[C@@H](C)O)C(C)C [amylin]
Plasma glucose after oral glucose load ([1]; amylin infusion 50, 100 and 300 pmol/kg/min, glucose 1 gm/kg by mouth): reduced both the rate of rise in plasma glucose as well as the peak plasma glucose
Effects on plasma lactate ([1]; oral glucose load): unremarkable
Cmax [2]: 0.076 nM
ED50 of inhibition of gastric emptying (gastric emptying; both normal and diabetic rats (summary)): ~1 µg
ED50 for suppression of gastric emptying (gastric emptying; s.c.): 2.3 nmol/gk
ED50 for suppression of gastric emptying (gastric emptying; s.c., ±0.18 log units): 2.2 µg
Dye recoverable from stomach 20 min after gavage (gastric emptying; diabetic rats, 10 μg s.c. (P=0.14)): the same as that recoverable immediately after gavage
Dose restoring gastric emptying in a diabetic rat to the rate of normal rats not administered amylin (gastric emptying; estimated from fitted curves of FIG. 14): ~2 µg
Plasma concentrations 50% effective in inhibiting gastric emptying (gastric emptying; inferred from plasma profile after 1 μg s.c.): less than 74 pM
ED50 for change in gastric emptying (gastric emptying; s.c.): 0.60 nmole amylin/kg body weight
ED50 for change in gastric emptying (gastric emptying; s.c. 5 min before gavage, ±0.19 log units): 0.43 µg
Dye recoverable from stomach 20 min after gavage (gastric emptying; normal HSD rats, 1 μg s.c. (P=0.22)): the same as that recoverable immediately after gavage
Effect on gastric emptying (in words) (gastric emptying; s.c. 5 min before gavage, 0.01-100 μg): dose dependent suppression of gastric emptying
Lowering of plasma calcium [3]: up to 20%
Plasma renin activity (plasma renin activity): markedly increases
Absorption of glucose from the duodenum into the blood ([4]; amylin infusion 0.35 nm/kg/min, glucose 1 g/kg): not delayed
Rate of transit of labelled glucose from small bowel lumen into plasma ([4]; perfused exteriorized small bowel segment): no effect
Plasma glucose after injection ([5]; prolonged increase from about 6): ~11 mM
Plasma lactate after injection ([5]; rise from about 0.5, i.v. and s.c.): ~1.5 mM

EC50 [6]: 6.62 nM
SMILES: CC[C@H](C)[C@H](NC(=O)[C@H](C)NC(=O)CNC(=O)[C@H](Cc1ccccc1)NC(=O)[C@H](CC(N)=O)NC(=O)[C@H](CC(N)=O)NC(=O)[C@H](CO)NC(=O)[C@H](CO)NC(=O)[C@H](Cc1c[nH]cn1)NC(=O)[C@@H](NC(=O)[C@H](CC(C)C)NC(=O)[C@H](Cc1ccccc1)NC(=O)[C@H](CC(N)=O)NC(=O)[C@H](C)NC(=O)[C@H](CC(C)C)NC(=O)[C@H](CCCNC(=N)N)NC(=O)[C@H](CCC(N)=O)NC(=O)[C@@H](NC(=O)[C@H](C)NC(=O)[C@@H]1CCCCNC(=O)C[C@H](NC(=O)[C@@H](N)CCCCN)C(=O)N[C@@H](CC(N)=O)C(=O)N[C@@H]([C@@H](C)O)C(=O)N[C@@H](C)C(=O)N[C@@H]([C@@H](C)O)C(=O)N1)[C@@H](C)O)C(C)C)C(=O)N[C@@H](CC(C)C)C(=O)N[C@@H](CO)C(=O)N[C@@H](CO)C(=O)N[C@H](C(=O)N[C@@H](CC(N)=O)C(=O)N[C@H](C(=O)NCC(=O)N[C@@H](CO)C(=O)N[C@@H](CC(N)=O)C(=O)N[C@H](C(=O)N[C@@H](Cc1ccc(O)cc1)C(N)=O)[C@@H](C)O)C(C)C)[C@@H](C)O [^2,7Cyclo-[^2Asp, ^7Lys]-h-Amylin, ^2,7Cyclo-[^2Asp,^7Lys]-h-Amylin] (H-KDNTATKATQRLANFLVHSSNNFGAILSSTNVGSNTY-NH2; lactam 2-7; N-terminus and C-terminus assumed)
